According to patent US8859796B1, “Synthetic and purification methods for phosphaplatin compounds and uses thereof” (Phosplatin Therapeutics LLC, priority 2012, dated 2014):

Tests used:
[1] = Long-term stability study of the recrystallized (R,R)-DACH-2 sample; type: physicochemical; conditions: not exceeding 25° C., humidity 60±5%
Description: A long-term stability study of the recrystallized sample was conducted.

[2] = Stability of saturated aqueous solutions of (R,R)-DACH-2 at pH 2, composition by HPLC; type: physicochemical
Description: The resultant suspension was stirred for 30 min and the pH adjusted to 2 with 0.1M nitric acid. The solution was filtered through a 0.45 micron Whatman polypropylene filter to afford a clear solution. Samples of the solution were stored at 25° C. and 5° C. At the time intervals shown in Tables 2 and 3 the solution composition was determined by HPLC.

[3] = after 14 months, initial 0.01% (wt/wt)
[4] = aqueous solution, pH 2, 5° C., 0.1 h
[5] = aqueous solution, pH 2, 5° C., 2 h
[6] = aqueous solution, pH 2, 5° C., 4 h
[7] = aqueous solution, pH 2, 5° C., 8 h
[8] = aqueous solution, pH 2, 5° C., 16 h
[9] = aqueous solution, pH 2, 5° C., 24 h
[10] = aqueous solution, pH 2, 5° C., 48 h
[11] = aqueous solution, pH 2, 25° C., 0.1 h
[12] = aqueous solution, pH 2, 25° C., 2 h
[13] = aqueous solution, pH 2, 25° C., 4 h
[14] = aqueous solution, pH 2, 25° C., 8 h
[15] = aqueous solution, pH 2, 25° C., 16 h
[16] = aqueous solution, pH 2, 25° C., 24 h
[17] = aqueous solution, pH 2, 25° C., 48 h

NC1CCCCC1N.O=P([O-])([O-])OP(=O)(O)O.[Pt+2] [(R,R)-DACH-2, cyclohexanediamine (pyrophosphato)platinum (II)]
(R,R)-DACH-2 purity on re-testing ([1]; after 14 months, HDPE bottle, initial 99.4% w/w): 98.4 % (wt/wt) | chloride content on re-testing [1, 3]: 0.01% (wt/wt) | nitrate content on re-testing [1, 3]: 0.01% (wt/wt) | pyrophosphate content on re-testing ([1]; after 14 months, initial 0.17% (wt/wt)): 0.17% (wt/wt) | DACH-Pt—Cl2 content on re-testing ([1]; after 14 months, initial not detected): not detected | Long-term stability, conclusion in words ([1]; purified solid, 14 months): stable | (R,R)-DACH-2 [2, 4]: 12.8 HPLC Area % | (R,R)-DACH-2 concentration [2, 4]: 0.1 mg/mL | (R,R)-DACH-2 dimer [2, 4]: 16.8 HPLC Area % | (R,R-DACH-2 water adduct) [2, 4]: 2.5 HPLC Area % | Pt-DACH-diaquo [2, 4]: 68.3 HPLC Area % | (R,R)-DACH-2 [2, 5]: 11.7 HPLC Area % | (R,R)-DACH-2 concentration [2, 5]: 2 mg/mL | (R,R)-DACH-2 dimer [2, 5]: 24.2 HPLC Area % | (R,R-DACH-2 water adduct) [2, 5]: 2.22 HPLC Area % | Pt-DACH-diaquo [2, 5]: 60.9 HPLC Area % | (R,R)-DACH-2 [2, 6]: 10.6 HPLC Area % | (R,R)-DACH-2 concentration [2, 6]: 4 mg/mL | (R,R)-DACH-2 dimer [2, 6]: 29.2 HPLC Area % | (R,R-DACH-2 water adduct) [2, 6]: 2.02 HPLC Area % | Pt-DACH-diaquo [2, 6]: 57.2 HPLC Area % | (R,R)-DACH-2 [2, 7]: 9.6 HPLC Area % | (R,R)-DACH-2 concentration [2, 7]: 8 mg/mL | (R,R)-DACH-2 dimer [2, 7]: 33.5 HPLC Area % | (R,R-DACH-2 water adduct) [2, 7]: 1.81 HPLC Area % | Pt-DACH-diaquo [2, 7]: 53.6 HPLC Area % | (R,R)-DACH-2 [2, 8]: 9.3 HPLC Area % | (R,R)-DACH-2 concentration [2, 8]: 16 mg/mL | (R,R)-DACH-2 dimer [2, 8]: 35.1 HPLC Area % | (R,R-DACH-2 water adduct) [2, 8]: 1.63 HPLC Area % | Pt-DACH-diaquo [2, 8]: 52.5 HPLC Area % | (R,R)-DACH-2 [2, 9]: 9.4 HPLC Area % | (R,R)-DACH-2 concentration [2, 9]: 24 mg/mL | (R,R)-DACH-2 dimer [2, 9]: 36.2 HPLC Area % | (R,R-DACH-2 water adduct) [2, 9]: 1.43 HPLC Area % | Pt-DACH-diaquo [2, 9]: 51.5 HPLC Area % | (R,R)-DACH-2 [2, 10]: 9.3 HPLC Area % | (R,R)-DACH-2 concentration [2, 10]: 48 mg/mL | (R,R)-DACH-2 dimer [2, 10]: 34.7 HPLC Area % | (R,R-DACH-2 water adduct) [2, 10]: 1.27 HPLC Area % | Pt-DACH-diaquo [2, 10]: 53.8 HPLC Area % | (R,R)-DACH-2 [2, 11]: 67.1 HPLC Area % | (R,R)-DACH-2 concentration [2, 11]: 2.38 mg/mL | (R,R)-DACH-2 dimer [2, 11]: 2.9 HPLC Area % | (R,R-DACH-2 water adduct) [2, 11]: 13.3 HPLC Area % | Pt-DACH-diaquo [2, 11]: 16.7 HPLC Area % | (R,R)-DACH-2 [2, 12]: 50.6 HPLC Area % | (R,R)-DACH-2 concentration [2, 12]: 1.75 mg/mL | (R,R)-DACH-2 dimer [2, 12]: 14.3 HPLC Area % | (R,R-DACH-2 water adduct) [2, 12]: 9.3 HPLC Area % | Pt-DACH-diaquo [2, 12]: 25.8 HPLC Area % | (R,R)-DACH-2 [2, 13]: 48.7 HPLC Area % | (R,R)-DACH-2 concentration [2, 13]: 1.59 mg/mL | (R,R)-DACH-2 dimer [2, 13]: 17.4 HPLC Area % | (R,R-DACH-2 water adduct) [2, 13]: 9.2 HPLC Area % | Pt-DACH-diaquo [2, 13]: 24.8 HPLC Area % | (R,R)-DACH-2 [2, 14]: 51.6 HPLC Area % | (R,R)-DACH-2 concentration [2, 14]: 1.41 mg/mL | (R,R)-DACH-2 dimer [2, 14]: 13.4 HPLC Area % | (R,R-DACH-2 water adduct) [2, 14]: 9.5 HPLC Area % | Pt-DACH-diaquo [2, 14]: 25.5 HPLC Area % | (R,R)-DACH-2 [2, 15]: 56.5 HPLC Area % | (R,R)-DACH-2 concentration [2, 15]: 1.04 mg/mL | (R,R)-DACH-2 dimer [2, 15]: 8.1 HPLC Area % | (R,R-DACH-2 water adduct) [2, 15]: 9.8 HPLC Area % | Pt-DACH-diaquo [2, 15]: 25.6 HPLC Area % | (R,R)-DACH-2 [2, 16]: 57.6 HPLC Area % | (R,R)-DACH-2 concentration [2, 16]: 0.88 mg/mL | (R,R)-DACH-2 dimer [2, 16]: 7 HPLC Area % | (R,R-DACH-2 water adduct) [2, 16]: 10.1 HPLC Area % | Pt-DACH-diaquo [2, 16]: 25.3 HPLC Area % | (R,R)-DACH-2 [2, 17]: 59.5 HPLC Area % | (R,R)-DACH-2 concentration [2, 17]: 0.62 mg/mL | (R,R)-DACH-2 dimer [2, 17]: 5.5 HPLC Area % | (R,R-DACH-2 water adduct) [2, 17]: 9.3 HPLC Area % | Pt-DACH-diaquo [2, 17]: 25.9 HPLC Area % | Degradation rate, conclusion in words ([2]; aqueous solution, pH 2, as temperature is reduced (25° C. to 5° C.)): significantly reduced | Stability in aqueous solution, conclusion in words ([2]; saturated aqueous solution, pH 2): readily suffers hydrolytic degradation
